Assay results reported in patent US11548880B2, “Modulators of hemoglobin” (Global Blood Therapeutics, Inc., priority 2018, dated 2023).

Target: T1, Hb (Homo sapiens, UniProt P68871+P69905)
T1 construct: from tissue; host or cells: whole blood
Experiment: Whole blood assay: oxygen equilibrium curves (Hemox Analyzer), change in p50
Assay type: cell-based
Details: whole blood incubated 1 h at 37° C., equimolar ratio of hemoglobin to compound
Method: Whole blood assay: Oxygen equilibrium curves (OECs) were collected using a TCS Hemox Analyzer (TCS Scientific Company, New Hope, Pa., USA) to measure changes in the binding affinity of O2 to Hb. Whole blood was incubated for 1 h at 37° C. with the indicated compounds in an equimolar ratio of hemoglobin to compound and diluted into TES (2-[[1,3-dihydroxy-2-(hydroxymethyl)propan-2-yl]amino]ethanesulfonic acid)/saline buffer prior to measurements. For example, for whole blood at 20% hematocrit [Hct], which corresponds to 1 mM Hb, a compound concentration of 1 mM was used (for example, for compounds 1-5), and the incubated sample diluted 50- to 100-fold. The concentration for compounds 6-44 (Diastereomers 1 and 2) varied but remained in equimolar ratio to hemoglobin. The diluted samples were then oxygenated with compressed air within the Hemox Analyzer and the OECs were collected during deoxygenation as previously described (Guarnone et al., Haematologica, 1995, 80, 426-430). p 50 (partial pressure of O2 at which Hb is 50% saturated with O2) values were obtained using a non-linear regression analysis. Percentage change in p50 [Δp50(%)] was calculated as follows: Δp50(%)=[(p50 of control)−p50 with compound)/p50 control]×100.

T1 sequence (P69905 2-142 limits assumed): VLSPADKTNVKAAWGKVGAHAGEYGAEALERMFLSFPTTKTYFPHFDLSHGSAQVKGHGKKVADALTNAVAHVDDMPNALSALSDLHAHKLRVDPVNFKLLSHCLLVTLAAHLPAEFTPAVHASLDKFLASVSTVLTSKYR
T1 sequence (P68871 2-147 limits assumed): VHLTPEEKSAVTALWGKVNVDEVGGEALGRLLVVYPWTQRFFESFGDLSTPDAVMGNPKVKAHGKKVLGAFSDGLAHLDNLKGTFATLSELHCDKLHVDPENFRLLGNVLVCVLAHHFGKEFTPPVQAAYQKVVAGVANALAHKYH

Compared with CC(O)c1ncccc1C(=O)N1CCSC[C@H]1COc1cccc(O)c1C=O (single isomer, unassigned) [43 (Diastereomer 1)], CC(O)Cc1ncccc1C(=O)N1CCSC[C@H]1COc1cccc(O)c1C=O (single isomer, unassigned) [44 (Diastereomer 2)] is lower in “Delta-p50 (%)” value: 64.50% for the first, 54.34% for the second.

Compared with CC(O)c1ncccc1C(=O)N1CCOC[C@H]1COc1cccc(O)c1C=O (single isomer, unassigned) [41 (Diastereomer 2)], CC(O)Cc1ncccc1C(=O)N1CCOC[C@H]1COc1cccc(O)c1C=O (single isomer, unassigned) [42 (Diastereomer 1)] is higher in “Delta-p50 (%)” value: 53.94% for the first, 76.39% for the second.

First: O=Cc1c(O)cccc1OC[C@@H]1CCCN1C(=O)c1cccnc1CCO [Compound 9, (S)-2-hydroxy-6-((1-(2-(2-hydroxyethyl)-nicotinoyl)pyrrolidin-2-yl)methoxy)benzaldehyde]
Second: COCCc1ncccc1C(=O)N1CCC[C@H]1COc1cccc(O)c1C=O [Compound 24, 2-hydroxy-6-{[(2S)-1-[2-(2-methoxyethyl)pyridine-3-carbonyl]pyrrolidin-2-yl]methoxy}benzaldehyde]
The “Delta-p50 (%)” value of the first is lower: 62.2% for the first, 65.51% for the second.

First: N#CCCc1ncccc1C(=O)N1CCOC[C@H]1COc1cccc(O)c1C=O [Compound 28, 3-{3-[(3S)-3-[(2-formyl-3-hydroxyphenoxy)methyl]morpholine-4-carbonyl]pyridin-2-yl}propanenitrile]
Second: N#CCCc1ncccc1C(=O)N1CCC[C@H]1COc1cccc(O)c1C=O [Compound 30, (S)-3-(3-(2-((2-formyl-3-hydroxyphenoxy)methyl)-pyrrolidine-1-carbonyl)-pyridin-2-yl)propanenitrile]
The “Delta-p50 (%)” value of the first is higher: 83.35% for the first, 74.19% for the second.

First: O=Cc1c(O)cccc1OC[C@@H]1CCCN1C(=O)c1nccnc1CCO [Compound 19, (S)-2-hydroxy-6-((1-(3-(2-hydroxyethyl)pyrazine-2-carbonyl)pyrrolidin-2-yl)methoxy)benzaldehyde]
Second: O=Cc1c(O)cccc1OC[C@@H]1CCCCN1C(=O)c1nccnc1CCO [Compound 7, (S)-2-hydroxy-6-((1-(3-(2-hydroxyethyl)pyrazine-2-carbonyl)piperidin-2-yl)methoxy)benzaldehyde]
The “Delta-p50 (%)” value of the first is lower: 54.67% for the first, 62.7% for the second.

Going from O=Cc1c(O)cccc1OCC1CSCCN1C(=O)c1cccnc1CCO (single isomer, unassigned) [10 (Enantiomer 1), 2-hydroxy-6-((4-(2-(2-hydroxyethyl)nicotinoyl)-thiomorpholin-3-yl)-methoxy)benzaldehyde] to O=Cc1c(O)cccc1OCC1CSCCN1C(=O)c1cccnc1CO (single isomer, unassigned) [13 (Enantiomer 2), 2-hydroxy-6-((4-(2-(hydroxymethyl)nicotinoyl)-thiomorpholin-3-yl)-methoxy)benzaldehyde], the “Delta-p50 (%)” value falls from 65.6% to 61.0%.

Going from CC(O)c1ncccc1C(=O)N1CCOC[C@H]1COc1cccc(O)c1C=O (single isomer, unassigned) [41 (Diastereomer 1)] to CC(O)Cc1ncccc1C(=O)N1CCOC[C@H]1COc1cccc(O)c1C=O (single isomer, unassigned) [42 (Diastereomer 2)], the “Delta-p50 (%)” value rises from 66.71% to 75.05%.

Going from O=Cc1c(O)cccc1OC[C@@H]1CCCN1C(=O)c1ccccc1CO [Compound 26, 2-hydroxy-6-{[(2S)-1-[2-(hydroxymethyl)benzoyl]pyrrolidin-2-yl]methoxy}benzaldehyde] to O=Cc1c(O)cccc1OC[C@@H]1CCCCN1C(=O)c1ccccc1CO [Compound 5, (S)-2-hydroxy-6-((1-(2-(hydroxymethyl)benzoyl)piperidin-2-yl)methoxy)benzaldehyde], the “Delta-p50 (%)” value rises from 51.72% to 81.0%.

Going from O=Cc1c(O)cccc1OC[C@@H]1CCCCN1C(=O)c1ccccc1C(O)CO (single isomer, unassigned) [34 (Diastereomer 2)] to COCCc1ccccc1C(=O)N1CCCC[C@H]1COc1cccc(O)c1C=O [Compound 14, (S)-2-hydroxy-6-((1-(2-(2-methoxyethyl)benzoyl)piperidin-2-yl)methoxy)benzaldehyde], the “Delta-p50 (%)” value falls from 81.59% to 74.56%.

Compared with COCCc1nccnc1C(=O)N1CCC[C@H]1COc1cccc(O)c1C=O [Compound 25, 2-hydroxy-6-{[(2S)-1-[3-(2-methoxyethyl)pyrazine-2-carbonyl]pyrrolidin-2-yl]methoxy}benzaldehyde], COCCc1nccnc1C(=O)N1CCOC[C@H]1COc1cccc(O)c1C=O [Compound 27, 2-hydroxy-6-{[(3S)-4-[3-(2-methoxyethyl)pyrazine-2-carbonyl]morpholin-3-yl]methoxy}benzaldehyde] is higher in “Delta-p50 (%)” value: 53.36% for the first, 66.58% for the second.

Compared with O=Cc1c(O)cccc1OC[C@@H]1CCCCN1C(=O)c1cccnc1CCN1CCCC1 [Compound 4, (S)-2-hydroxy-6-((1-(2-(2-(pyrrolidin-1-yl)ethyl)nicotinoyl)piperidin-2-yl)methoxy)benzaldehyde], O=Cc1c(O)cccc1OC[C@@H]1CCCCN1C(=O)c1ccccc1CCN1CCCC1 [Compound 17, (S)-2-hydroxy-6-((1-(2-(2-(pyrrolidin-1-yl)ethyl)benzoyl)piperidin-2-yl)methoxy)benzaldehyde] is lower in “Delta-p50 (%)” value: 75.5% for the first, 27.09% for the second.

Going from O=Cc1c(O)cccc1OCC1CSCCN1C(=O)c1ccccc1CO (single isomer, unassigned) [40 (Enantiomer 1), 2-hydroxy-6-((4-(2-(hydroxymethyl)benzoyl)-thiomorpholin-3-yl)-methoxy)benzaldehyde] to CC(O)Cc1ncccc1C(=O)N1CCSC[C@H]1COc1cccc(O)c1C=O (single isomer, unassigned) [44 (Diastereomer 1)], the “Delta-p50 (%)” value rises from 64.31% to 66.57%.

First: CC(O)c1ncccc1C(=O)N1CCSC[C@H]1COc1cccc(O)c1C=O (single isomer, unassigned) [43 (Diastereomer 2)]
Second: COCCc1ncccc1C(=O)N1CCCC[C@H]1COc1cccc(O)c1C=O [Compound 2, (S)-2-hydroxy-6-((1-(2-(2-methoxyethyl)nicotinoyl)piperidin-2-yl)methoxy)benzaldehyde]
The “Delta-p50 (%)” value of the first is lower: 64.56% for the first, 84.4% for the second.

First: N#CCCc1ncccc1C(=O)N1CCCC[C@H]1COc1cccc(O)c1C=O [Compound 3, (S)-3-(3-(2-((2-formyl-3-hydroxyphenoxy)methyl)piperidine-1-carbonyl)pyridin-2-yl)propanenitrile]
Second: O=Cc1c(O)cccc1OC[C@@H]1CCCCN1C(=O)c1cccnc1CCCO [Compound 18, (S)-2-hydroxy-6-((1-(2-(3-hydroxypropyl)nicotinoyl)-piperidin-2-yl)methoxy)-benzaldehyde]
The “Delta-p50 (%)” value of the first is higher: 85.8% for the first, 79.67% for the second.

First: N#CCCc1nccnc1C(=O)N1CCOC[C@H]1COc1cccc(O)c1C=O [Compound 32, 3-{3-[(3S)-3-[(2-formyl-3-hydroxyphenoxy)methyl]morpholine-4-carbonyl]pyrazin-2-yl}propanenitrile]
Second: O=Cc1c(O)cccc1OC[C@@H]1COCCN1C(=O)c1nccnc1CCO [Compound 21, 2-hydroxy-6-{[(3S)-4-[3-(2-hydroxyethyl)pyrazine-2-carbonyl]morpholin-3-yl]methoxy}benzaldehyde]
The “Delta-p50 (%)” value of the first is higher: 60.55% for the first, 60.21% for the second.

Compared with O=Cc1c(O)cccc1OC[C@@H]1CCCCN1C(=O)c1ccccc1C(O)CO (stereo partly drawn) [Compound 34, 2-{[(2S)-1-[2-(1,2-dihydroxyethyl)benzoyl]piperidin-2-yl]methoxy}-6-hydroxybenzaldehyde], N#CCCc1ccccc1C(=O)N1CCCC[C@H]1COc1cccc(O)c1C=O [Compound 15, (S)-3-(2-(2-((2-formyl-3-hydroxyphenoxy)methyl)piperidine-1-carbonyl)phenyl)propanenitrile] is higher in “Delta-p50 (%)” value: 79.46% for the first, 80.5% for the second.

Going from N#CCCc1ccccc1C(=O)N1CCOC[C@H]1COc1cccc(O)c1C=O [Compound 31, 3-{2-[(3S)-3-[(2-formyl-3-hydroxyphenoxy)methyl]morpholine-4-carbonyl]phenyl}propanenitrile] to O=Cc1c(O)cccc1OC[C@@H]1COCCN1C(=O)c1ccccc1CCO [Compound 22, 2-hydroxy-6-{[(3S)-4-[2-(2-hydroxyethyl)benzoyl]morpholin-3-yl]methoxy}benzaldehyde], the “Delta-p50 (%)” value falls from 74.03% to 70.32%.

First: O=Cc1c(O)cccc1OC[C@@H]1COCCN1C(=O)c1nccnc1CO [Compound 33, 2-hydroxy-6-{[(3S)-4-[3-(hydroxymethyl)pyrazine-2-carbonyl]morpholin-3-yl]methoxy}benzaldehyde]
Second: COCCc1ccccc1C(=O)N1CCOC[C@H]1COc1cccc(O)c1C=O [Compound 29, 2-hydroxy-6-{[(3S)-4-[2-(2-methoxyethyl)benzoyl]morpholin-3-yl]methoxy}benzaldehyde]
The “Delta-p50 (%)” value of the first is lower: 49.03% for the first, 78.79% for the second.

Going from O=Cc1c(O)cccc1OC[C@@H]1CCCCN1C(=O)c1ncccc1CCO [Compound 16, (S)-2-hydroxy-6-((1-(3-(2-hydroxyethyl)picolinoyl)piperidin-2-yl)methoxy)benzaldehyde] to O=Cc1c(O)cccc1OC[C@@H]1CCCCN1C(=O)c1ccccc1C(O)CO (single isomer, unassigned) [34 (Diastereomer 1)], the “Delta-p50 (%)” value rises from 49.55% to 80.43%.
